Laboratory results published in ChEMBL document CHEMBL1123633, “Cardiotonic agents. 8. Selective inhibitors of adenosine 3',5'-cyclic phosphate phosphodiesterase III. Elaboration of a five-point model for positive inotropic activity” (J Med Chem, 1987).

Tests used:
Phosphodiesterase 3 = Phosphodiesterase 3 (Homo sapiens, UniProt Q14432+Q13370); experiment: Inhibition of cAMP PDE III enzyme; assay type: protein assay, Cavia porcellus
Canis familiaris = experiment: 50% increase in myocardial contractility (dP/dt max) in anesthetized dogs on intravenous dose; assay type: functional; details: Canis lupus familiaris, Myocardium
Phosphodiesterase 1 [1] = target: T1, Phosphodiesterase 1 (Homo sapiens, UniProt P54750+Q01064+Q14123); experiment: Inhibition cGMP PDE I enzyme; assay type: protein assay, Cavia porcellus
Phosphodiesterase 1 [2] = target: T1, Phosphodiesterase 1; experiment: Inhibition of cAMP PDE I enzyme; assay type: protein assay, Cavia porcellus
[3] = target: T2, cGMP-dependent 3',5'-cyclic phosphodiesterase (Homo sapiens, UniProt O00408); experiment: Inhibition of cGMP PDE II enzyme; set-up: species or system Cavia porcellus
T2 sequence (O00408 whole entry): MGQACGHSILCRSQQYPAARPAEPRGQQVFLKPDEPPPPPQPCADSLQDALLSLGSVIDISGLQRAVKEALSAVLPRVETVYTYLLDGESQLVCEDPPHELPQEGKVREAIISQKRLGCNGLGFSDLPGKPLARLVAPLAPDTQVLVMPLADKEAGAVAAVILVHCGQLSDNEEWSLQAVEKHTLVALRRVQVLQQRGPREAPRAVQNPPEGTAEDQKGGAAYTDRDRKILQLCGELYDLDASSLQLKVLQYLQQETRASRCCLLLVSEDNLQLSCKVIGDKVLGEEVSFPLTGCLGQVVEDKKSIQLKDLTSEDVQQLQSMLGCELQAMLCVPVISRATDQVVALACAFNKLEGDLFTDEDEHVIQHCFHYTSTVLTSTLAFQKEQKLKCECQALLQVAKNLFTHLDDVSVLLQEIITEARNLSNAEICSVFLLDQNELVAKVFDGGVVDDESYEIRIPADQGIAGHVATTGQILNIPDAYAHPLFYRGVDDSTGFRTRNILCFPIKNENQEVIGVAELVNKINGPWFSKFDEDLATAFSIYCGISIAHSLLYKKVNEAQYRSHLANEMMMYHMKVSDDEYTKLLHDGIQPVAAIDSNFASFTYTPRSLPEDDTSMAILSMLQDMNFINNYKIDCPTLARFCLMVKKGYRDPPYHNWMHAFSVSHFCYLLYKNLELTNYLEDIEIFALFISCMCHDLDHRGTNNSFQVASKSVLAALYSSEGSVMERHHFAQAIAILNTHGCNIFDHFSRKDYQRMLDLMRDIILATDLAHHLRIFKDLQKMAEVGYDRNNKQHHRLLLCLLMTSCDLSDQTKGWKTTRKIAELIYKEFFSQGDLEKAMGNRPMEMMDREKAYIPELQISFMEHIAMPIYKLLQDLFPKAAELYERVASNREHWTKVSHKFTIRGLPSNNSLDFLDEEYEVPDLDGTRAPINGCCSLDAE

[4] = target: T2, cGMP-dependent 3',5'-cyclic phosphodiesterase; experiment: Inhibition of cAMP PDE II enzyme; set-up: species or system Cavia porcellus

| Structure (SMILES) | IC50 (Phosphodiesterase 1 [1]) | ED50 (Canis familiaris) | other results |
| --- | --- | --- | --- |
| CC1CC(=O)NN=C1c1ccc2c(c1)CCC(=O)N2C (stereo unspecified) | – | – | IC50 (Phosphodiesterase 3): 0.12 µM |
| O=C1CC2Cc3cc(-n4ccnc4)ccc3C2=NN1 (stereo unspecified) | – | 0.023 mg/kg | – |
| O=C1CC2Cc3cc(-n4cnc5c4CCCC5)ccc3C2=NN1 (stereo unspecified) | – | 0.05 mg/kg | IC50 (Phosphodiesterase 3): 1.2 µM |
| CSc1ccc(C(=O)c2[nH]c(=O)[nH]c2C)cc1 [ENOXIMONE] | – | 0.28 mg/kg | – |
| Cc1[nH]c(=O)c(C#N)cc1-c1ccncc1 [MILRINONE] | – | 0.04 mg/kg | – |
| CCc1[nH]c(=O)[nH]c1C(=O)c1ccncc1 [PIROXIMONE] | – | 0.1 mg/kg | – |

More lines, main results first:

| IC50 (Phosphodiesterase 1 [1]) | Structure (SMILES) | ED50 (Canis familiaris) | other results |
| --- | --- | --- | --- |
| > 1000 µM | O=C1CCC(c2cccc(-n3ccnc3)c2)=NN1 | – | – |
| 130 µM | CC1=C(c2ccc(-n3ccnc3)cc2)CC(C#N)C(=O)N1 (stereo unspecified) | 0.01 mg/kg | IC50 (Phosphodiesterase 1 [2]): 39 µM; IC50 [3]: 120 µM; IC50 [4]: 43 µM |
| > 1000 µM | Nc1cc(-c2ccncc2)c[nH]c1=O [INAMRINONE] | 0.39 mg/kg | IC50 (Phosphodiesterase 1 [2]): > 1000 µM |
